{"source": "patent US20260240895A1", "about": "“BETA-GLUCAN PARTICLES FOR TRAINED IMMUNITY” (THE PROVOST, FELLOWS, FOUNDATION SCHOLARS, AND THE OTHER …, priority 2022, published 2026)", "key": {"[1]": {"tested_on": "human monocytes / monocyte-derived macrophages (hMDM)", "experiment": "Human monocyte training assay: cytokine ELISA after restimulation of monocyte-derived macrophages", "type": "cell-based"}, "human monocytes": {"tested_on": "human monocytes", "experiment": "TNF production by monocytes 24 h post-training (monocyte activation)", "type": "cell-based", "conditions": "TNF 24 h after dWGP"}, "[2]": {"tested_on": "mTOR (phospho-S6 ribosomal protein)", "experiment": "Intracellular phospho-S6 staining by flow cytometry (mTOR activity)", "type": "cell-based, human", "conditions": "15 min pre-treatment, dWGP 10 μg/mL 2 h", "experimental": "To analyse phospho-S6 ribosomal protein activity after β-glucan treatment, PBMCs were isolated as above and resuspended in RPMI-1640 media supplemented with 10% human AB serum (Sigma-Aldrich) at 2×10^6/mL. Cells were first incubated with metabolic inhibitors for 15 min as indicated above. […] After the incubation time, cells were resuspended by vortexing quickly, washed in flow buffer; [PBS-1× (Gibco) supplemented with 5% heat inactivated FBS (Gibco) and 0.1% Sodium azide (Sigma)] and the following flow cytometry staining protocol was applied to all samples with up to 100,000 cells per sample. Cells were stained with fixable viability stain ZombieAqua™ (Biolegend) at the concentration of 1:500 for 15 minutes. Subsequently, samples were washed with flow buffer and incubated with anti-Dectin-1-PE (clone 15E2, Biolegend) antibody for Dectin-1 surface staining, then washed and fixed 20 minutes with IC Fixation Buffer (Invitrogen). […] All cells were subsequently washed with flow buffer and resuspended 20 minutes with IC Fixation Buffer (Invitrogen) for fixation. Cells were then washed with flow buffer, incubated at 4° C. for 30 minutes with Perm/Wash Buffer (BD Biosciences) containing anti-phospho-S6-PE (Ser235/236) (cloneD57.2.2E, Cell Signaling) at 1:200 for intracellular pS6 staining, and finally washed again with flow buffer. Compensation controls were obtained after staining UltraComp eBeads™ Compensation Beads (Invitrogen) with the appropriate antibodies. Cells were acquired on the BD flow cytometer Canto II with FACSDiva software. Data analysis and flow charts were performed using FlowJo software v.7.6 (TreeStar)."}, "Dectin-1b": {"target": "T1, Dectin-1b (Homo sapiens, UniProt Q9BXN2)", "T1 construct": "host or cells: HEK293 (HEK-Blue) NFκB-SEAP reporter cells", "T1 sequence (Q9BXN2 1-201 isoform Q9BXN2-2)": "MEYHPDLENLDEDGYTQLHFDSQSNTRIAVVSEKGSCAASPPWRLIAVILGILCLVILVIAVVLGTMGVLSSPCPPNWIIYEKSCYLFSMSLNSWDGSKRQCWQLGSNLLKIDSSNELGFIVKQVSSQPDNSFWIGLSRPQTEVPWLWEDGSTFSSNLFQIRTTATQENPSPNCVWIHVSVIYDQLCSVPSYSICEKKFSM", "experiment": "hDectin1b-HEK293 NFκB-SEAP reporter cell assay (QuantiBlue)", "type": "cell-based", "conditions": "for blocking of BGP- or dWGP-driven NFκB-SEAP activation: pre-incubation 1 h before BGP or dWGP 100 μg/mL; for NFκB-linked SEAP activity (Dectin-1b activation): β-glucans 1, 10 & 100 μg/mL, 6 h, relative to untreated cells"}, "Dectin-1": {"target": "T2, Dectin-1 (Homo sapiens, UniProt Q9BXN2)", "T2 construct": "incubated with anti-Dectin-1-PE (clone 15E2, Biolegend) antibody for Dectin-1 surface staining; endogenous in cells; host or cells: primary human monocytes (PBMC from buffy coats)", "T2 sequence (Q9BXN2 1-247)": "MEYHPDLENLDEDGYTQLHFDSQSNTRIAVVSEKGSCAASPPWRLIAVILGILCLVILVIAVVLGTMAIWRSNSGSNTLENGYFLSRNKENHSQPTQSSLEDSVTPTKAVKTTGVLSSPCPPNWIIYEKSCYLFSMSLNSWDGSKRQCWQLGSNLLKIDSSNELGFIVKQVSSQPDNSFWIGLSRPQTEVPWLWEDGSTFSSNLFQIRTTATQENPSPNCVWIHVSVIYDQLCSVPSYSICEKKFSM", "experiment": "Surface Dectin-1 expression on monocytes by flow cytometry", "type": "cell-based", "conditions": "CytD 10 μM 1 h before dWGP 100 μg/mL 15 min", "experimental": "To analyse phospho-S6 ribosomal protein activity after β-glucan treatment, PBMCs were isolated as above and resuspended in RPMI-1640 media supplemented with 10% human AB serum (Sigma-Aldrich) at 2×10^6/mL. Cells were first incubated with metabolic inhibitors for 15 min as indicated above. […] After the incubation time, cells were resuspended by vortexing quickly, washed in flow buffer; [PBS-1× (Gibco) supplemented with 5% heat inactivated FBS (Gibco) and 0.1% Sodium azide (Sigma)] and the following flow cytometry staining protocol was applied to all samples with up to 100,000 cells per sample. Cells were stained with fixable viability stain ZombieAqua™ (Biolegend) at the concentration of 1:500 for 15 minutes. Subsequently, samples were washed with flow buffer and incubated with anti-Dectin-1-PE (clone 15E2, Biolegend) antibody for Dectin-1 surface staining, then washed and fixed 20 minutes with IC Fixation Buffer (Invitrogen). Alternatively, cells were incubated with anti-CD14-APC (clone M5E2, Biolegend), anti-CD16-PE-Cy7 (clone 3G8, Biolegend), anti-HLA-DR-BB515 (clone G46-6, BD Bioscience) at a concentration of 1:100 in flow buffer for 30 minutes at 4° C. All cells were subsequently washed with flow buffer and resuspended 20 minutes with IC Fixation Buffer (Invitrogen) for fixation. […]"}, "[3]": {"tested_on": "bone marrow hematopoietic stem & progenitor cells (HSPC)", "experiment": "In vivo induction of trained immunity: flow cytometry of mouse bone marrow HSPC populations", "conditions": "0.050% w/w in chow, 4 weeks"}}, "note": "Read-outs that look alike come from different tables or passages of the source."}
{"molecule": "O=CC[C@@H](O)[C@H](O)[C@H](O)CO", "note": "[2DG, 2-deoxyglucose]", "values": [{"measurement": "effect of inhibitor pre-treatment on β-glucan training (TNF after LPS restimulation)", "setting": "[1]", "value": "abolished the ability of dWGP to increase LPS-restimulation responses"}]}
{"molecule": "Cc1ccc(S(=O)(=O)/C=C/C#N)cc1", "note": "[BAY 11-7082]", "values": [{"measurement": "effect of inhibitor pre-treatment on early monocyte TNF production driven by dWGP", "setting": "human monocytes", "value": "enhanced early TNF production"}, {"measurement": "effect of inhibitor pre-treatment on β-glucan training (TNF after LPS restimulation)", "setting": "[1]; inhibitor added to monocytes prior to training with dWGP and/or BGP, LPS 10 ng/ml 6 h", "value": "abolishment of LPS-restimulation driven TNF production in trained macrophages"}]}
{"molecule": "Oc1cc(O)cc(/C=C/c2ccc(O)c(O)c2)c1", "note": "[PIC, picethanol]", "values": [{"measurement": "effect of inhibitor pre-treatment on dWGP-driven p-S6 / mTOR activation", "setting": "[2]", "value": "did not affect mTOR up-regulation"}, {"measurement": "effect of inhibitor pre-treatment on early monocyte TNF production driven by dWGP", "setting": "human monocytes", "value": "block traditional pro-inflammatory signaling and monocyte TNF production"}, {"measurement": "effect of inhibitor pre-treatment on β-glucan training (TNF after LPS restimulation)", "setting": "[1]", "value": "suppressed monocyte training driven by both BGP and dWGP"}, {"measurement": "blocking of BGP- or dWGP-driven NFκB-SEAP activation", "setting": "Dectin-1b", "value": "blocking NFκB activation driven by dWGP and BGP"}]}
{"molecule": "CO/C1=C\\C(C)=C\\[C@@H](C)[C@@H](O)[C@@H](C)C/C(C)=C/C=C/[C@H](OC)[C@@H]([C@@H](C)[C@@H](O)[C@H](C)[C@@]2(O)C[C@@H](O)[C@H](C)[C@@H](C(C)C)O2)OC1=O", "note": "[bafilomycin A1]", "values": [{"measurement": "effect of inhibitor pre-treatment on dWGP-driven p-S6 / mTOR activation", "setting": "[2]", "value": "profound decrease in monocyte mTOR activation by dWGP"}]}
{"molecule": "C=C1[C@@H](C)[C@H]2[C@H](Cc3ccccc3)NC(=O)[C@]23[C@H](OC(C)=O)/C=C/[C@@](C)(O)C(=O)[C@@H](C)C/C=C/[C@H]3[C@@H]1O", "note": "[cytD, cytochalasin-D]", "values": [{"measurement": "effect of inhibitor on dWGP-induced loss of surface Dectin-1", "setting": "Dectin-1", "value": "blunts this effect"}, {"measurement": "effect of inhibitor pre-treatment on dWGP-driven p-S6 / mTOR activation", "setting": "[2]", "value": "blocked monocyte mTOR activation driven by dWGP"}, {"measurement": "effect of inhibitor pre-treatment on β-glucan training (TNF after LPS restimulation)", "setting": "[1]", "value": "preferentially blocked the training effect"}]}
{"molecule": "Curdlan", "values": [{"measurement": "TNF production upon LPS restimulation (training)", "setting": "[1]; monocytes exposed 24 h, matured 5 days, LPS 10 ng/ml 6 h, vs untrained", "value": "A trend toward some training was observed"}, {"measurement": "NFκB-linked SEAP activity (Dectin-1b activation)", "setting": "Dectin-1b", "value": "drive NFκB signaling in a dose-dependent fashion"}]}
{"molecule": "Pustulan", "values": [{"measurement": "NFκB-linked SEAP activity (Dectin-1b activation)", "setting": "Dectin-1b", "value": "drive NFκB signaling in a dose-dependent fashion"}]}
{"molecule": "inulin", "values": [{"measurement": "trained immunity-like effects (bone marrow progenitors, BMDM cytokines)", "setting": "[3]", "value": "behaving similarly to control chow-fed mice"}]}
{"molecule": "laminarin", "values": [{"measurement": "effect of inhibitor pre-treatment on β-glucan training (TNF after LPS restimulation)", "setting": "[1]", "value": "more effective at all doses tested"}, {"measurement": "blocking of BGP- or dWGP-driven NFκB-SEAP activation", "setting": "Dectin-1b", "value": "block Dectin-1b mediated NFκB activation"}]}
